In patent publication US9879303B2, “Chromogenic glucuronidase substrates and uses” (Glycosynth Limited, priority 2013, dated 2018):
Where a name gives a salt, the structure may show the parent alone.

Test system: E. coli clinical isolates
Assay: screen of strains on agar plates (CPS ID 3 or Columbia agar)
Format: cell-based
Set-up: key to colour: Red, Green, Black or Purple mean strong colour; Red, Green, Black or Purple mean strong colour; Red, Green, Black or Purple mean strong colour; Red, Green, Black or Purple mean strong colour; +/− means less colour than strong; Tr means a trace of colour, less than +/−; — means no colour
Conditions: for colour: 37° C. 18 hours
Text: In order to obtain a fuller picture of the sensitivity of the substrates, they were screened with 100 different clinical isolates of E. coli in a liquid medium containing FAC. The isolates were chosen at random from the Microbiology Department, Freeman Hospital, Newcastle Upon Tyne, UK. The effectiveness of the new substrates was compared with three other media which all contained indoxyl-β-D-glucuronides. One was a commercial medium, CPS ID 3 (bioMérieux SA, Lyon, France). […] This medium was employed as a control. Among the β-D-glucuronidase producing strains of E. coli there is a large variation in the quantity of the enzyme produced and it is almost certain that the CPS ID 3 medium has been rigorously optimised to allow good growth of all the target organisms and maximum expression of the target enzymes. Therefore, two indoxyl glucuronides, X-β-D-glucuronide CHA salt and Rose-β-D-glucuronide CHA salt were also tested in a simple agar medium to allow a direct comparison of the sensitivity of these Indoxyl glucuronides when used in a medium that has not been optimised for the growth of the target organism. The comparison of the results for Rose-β-D-glucuronide and the CPS ID 3 medium was of particular significance as the commercial medium also uses Rose-β-D-glucuronide for the detection of E. coli. For consistency, the four glucuronides were all chosen as their CHA salts. As already stated, it is not anticipated that the salt form is critical to their performance. Currently. X-β-D-glucuronide is often used as either the CHA salt or the sodium salt. Brenner and colleagues [K. P. Brenner et al, Appl. Environ. Microbiol., 59, 3534-3544, (1993)] found no difference in the performance of the CHA and sodium salt forms with their application using indoxyl-β-D-glucuronide, neither in respect of colour development nor in the recovery of E. coli.
The two indoxyl glucuronides used produce insoluble endpoints following hydrolysis, as does the CPS ID 3 medium. It was therefore necessary to test these two substrates on agar plates. In contrast, catechol-β-D-glucuronide (1) and DHN-β-D-glucuronide (2b) give much more soluble endpoints best suited to liquid media and were therefore tested in a broth medium. Each broth was prepared using proteose peptone (Oxoid, Basingstoke, UK) (2 g), NaCl (1 g) and FAC (100 mg) in DI water (180 mL). This mixture was autoclaved and cooled to room temperature before being dispensed into bijoux (100×1.8 mL). Catechol β-D-glucuronide CHA salt (1) or DHN-β-D-glucuronide CHA salt (2b) (60 mg) were each dissolved in water (20 mL) and filtered to sterilize before being aseptically dispensed into successive bijoux (0.2 mL) containing the broth solution. The broth/substrate solutions were then inoculated with bacterial suspensions made up to 0.5 McFarland standard (2 μL per bijoux). X-β-D-glucuronide CHA salt (Glycosynth Ltd, Warrington, UK) (10 mg) was dissolved in NMP (200 μL). Rose-β-D-glucuronide CHA salt (Glycosynth Ltd, Warrington, UK) (20 mg) was dissolved in NMP (200 μL). These solutions were then added to Columbia agar (Oxoid, Basingstoke, UK) (100 mL) and inoculated with bacterial suspensions made up to 0.5 McFarland standard (1 μL). The plates and broths were incubated at 37° C. for 18 hours in air.

[1] = 100 E. coli strains after 18 h incubation

SMILES: O=C(O)[C@H]1O[C@@H](Oc2c[nH]c3cc(Cl)ccc23)[C@H](O)[C@@H](O)[C@@H]1O [Rose-β-D-glucuronide CHA salt, 6-chloro-3-indolyl β-D-glucuronide]
- % Sensitivity [1]: 81%
- Negative strains [1]: 19
- Positive strains [1]: 81
- colour (E. coli 260262P): Red
- colour (E. coli 260280Z): Red
- colour (E. coli 260310H): Red
- colour (E. coli 260313A): —
- colour (E. coli 260316T): —
- colour (E. coli 260327V): Red
- colour (E. coli 260330Y): Red
- colour (E. coli 260333P): —
- colour (E. coli 260345F): Red
- colour (E. coli 260348K): Red
- colour (E. coli 260354W): Red
- colour (E. coli 260364H): —
- colour (E. coli 260370C): Red
- colour (E. coli 260375E): Red
- colour (E. coli 260390B): —
- colour (E. coli 260396Z): Red
- colour (E. coli 260398Q): Red
- colour (E. coli 260400N): —
- colour (E. coli 260401Q): Red
- colour (E. coli 260402H): Red
- colour (E. coli 260404W): Red
- colour (E. coli 260405P): Red
- colour (E. coli 260406A): —
- colour (E. coli 260406Y): Red
- colour (E. coli 260407F): Red
- colour (E. coli 260408C): Red
- colour (E. coli 260411Z): Red
- colour (E. coli 260412Q): Red
- colour (E. coli 260414H): Red
- colour (E. coli 260415Y): Red
- colour (E. coli 260416W): —
- colour (E. coli 260417P): Red
- colour (E. coli 260422Y): Red
- colour (E. coli 260424P): Red
- colour (E. coli 260425A): Red
- colour (E. coli 260426F): Red
- colour (E. coli 260428T): Red
- colour (E. coli 260431N): Red
- colour (E. coli 260432E): Red
- colour (E. coli 260433H): Red
- colour (E. coli 260434Y): Red
- colour (E. coli 260435W): Red
- colour (E. coli 260436P): Red
- colour (E. coli 260437A): Tr. Red
- colour (E. coli 260438F): Red
- colour (E. coli 260439C): Red
- colour (E. coli 260440S): Red
- colour (E. coli 260441G): Red
- colour (E. coli 260458Y): Red
- colour (E. coli 260459W): Red
- colour (E. coli 260463D): Red
- colour (E. coli 260464G): Red
- colour (E. coli 260471B): —
- colour (E. coli 260478N): —
- colour (E. coli 260479Q): Red
- colour (E. coli 260480M): Red
- colour (E. coli 260481J): Red
- colour (E. coli 260483R): —
- colour (E. coli 260485D): Red
- colour (E. coli 260486L): Red
- colour (E. coli 260492J): Red
- colour (E. coli 260494B): Red
- colour (E. coli 260495R): —
- colour (E. coli 260497D): Red
- colour (E. coli 260502G): Red
- colour (E. coli 260503Z): Red
- colour (E. coli 260504N): Red
- colour (E. coli 260505Q): —
- colour (E. coli 260506E): Red
- colour (E. coli 260508Y): Red
- colour (E. coli 260509W): Red
- colour (E. coli 260510R): Red
- colour (E. coli 260511X): Red
- colour (E. coli 260514G): —
- colour (E. coli 260515Z): Red
- colour (E. coli 260521S): Red
- colour (E. coli 260522Z): Red
- colour (E. coli 260532S): Red
- colour (E. coli 260533G): Red
- colour (E. coli 260536Q): Red
- colour (E. coli 260537E): —
- colour (E. coli 260538H): —
- colour (E. coli 260539Y): Red
- colour (E. coli 260541R): Red
- colour (E. coli 260545G): Red
- colour (E. coli 260547N): Red
- colour (E. coli 260548Q): Red
- colour (E. coli 260549E): Red
- colour (E. coli 260553X): —
- colour (E. coli 260554D): Red
- colour (E. coli 260555L): Red
- colour (E. coli 260563B): Red
- colour (E. coli 260564R): Red
- colour (E. coli 260578D): —
- colour (E. coli 2603121P): —
- colour (E. coli 2604399E): Red
- colour (E. coli O157 non-toxigenic): —
- colour of positive colonies (in words): red colonies
